The text below walks through data of patent publication US4831049A, “Pyrrolizidine compounds, and their use as antiarrhythmic agents” (Suntory Limited, priority 1984, dated 1989).

Data set [1] concerns ventricular flutter and fibrillation. The experiment in a line: Antiarrhythmic activity: prevention of ventricular flutter and fibrillation in mice caused to inhale chloroform. Format: in vivo, male mice of ddy strain. Conditions: for ED50: Mus musculus, sc, 0.5 h, subcutaneous, 30 minutes before chloroform inhalation, Litchfield and Wilcoxon, 95% confidence limit in parentheses. As to the method: In accordance with the method described by J. W. Lawson [Journal of pharmacology and Experimental Therapeutics, 160, 22, (1966)], male mice of ddy strain were caused to inhale chloroform and when respiration was arrested, electrocardiography was performed to observe the ventricular flutter and fibrillation. These abnormalities of the cardiac ventricle are prevented if an antiarrhythmic agent is previously administered. Several different doses of the compound of this invention were subctaneously administered to mice in group of 29 to 40 animals and, after an interval of 30 minutes, the animals were caused to inhale chloroform. The prophylactic effects of these doses on ventricular flutter and fibrillation were estimated and the 50% effective dose (ED50) and its 95% confidence limit were calculated by the method of Litchfield and Wilcoxon [Journal of Pharmacology and Experimental Therapeutics 96, 99, (1949)].

Data set [2] in a line: 50% lethal dose (LD50) by the up and down method; therapeutic index. Format: in vivo. Particulars: mouse, in vivo; male mice, bodyweight 18 to 22 g; up and down method.
Another data set concerns male mice. Described as above. The format is in vivo. Particulars: for Therapeutic index: ratio of LD50 to ED50.

A word on the ED50: it is the dose at which the effect has come halfway, by size or by number of responders. The LD50 is the dose at which mortality reaches 50%.

In the case of `Cc1ccc(NC(=O)C(C)C23CCCN2CCC3)cc1` (stereo not drawn), the ED50 in data set [1] was 115 mg/kg. In data set [2], this compound had a 50% lethal dose (LD50) of 400 mg/kg. Besides, in the data set on male mice, the Therapeutic index worked out at 3.4.
On to `CCC(C(=O)Nc1c(C)cccc1C)C12CCCN1CCC2` (stereo not drawn), for which the ED50 in data set [1] is 8.5 mg/kg. The LD50 in data set [2] amounted to 26 mg/kg. For the same compound, the Therapeutic index in the data set on male mice is given as 3.1.
`Cc1cccc(C)c1NC(=O)C(c1ccccc1)C12CCCN1CCC2` (stereo not drawn): the 50% effective dose (ED50) in data set [1] came out at 3.1 mg/kg. In data set [2], the LD50 was determined as 22 mg/kg. In addition, the Therapeutic index in the data set on male mice is 7.1.
Take `Cc1cccc(C)c1NC(=O)[C@H](C)C12CCCN1CCC2` [(2R)(-)SUN3341, N-(2,6-dimethylphenyl)-2-(8-pyrrolizidine)propionamide]: the ED50 in data set [1] was found to be 2.6 mg/kg. Moreover, the “antiarrhythmic activity relative to the racemic compound” value in data set [1] (versus racemic compound [(±)-compound]) was “approximately 9 times”. The LD50 in data set [2] was 67.6 mg/kg. For the same compound, the “toxicity relative to the racemic compound” value in the data set on male mice (in words, versus racemic compound) is on record as “comparable to the racemic compound in toxicity”. Also, in the data set with male mice, the Therapeutic index is 26.0. The “therapeutic index, in words” value in the data set on male mice (versus racemic compound) is recorded as “remarkably improved therapeutic index”.
For the compound `Cc1cccc(C)c1NC(=O)[C@@H](C)C12CCCN1CCC2` [(2S)(+)-SUN3341, N-(2,6-dimethylphenyl)-2-(8-pyrrolizidine)propionamide], the ED50 in data set [1] was 24 mg/kg. The LD50 in data set [2] came to 79.3 mg/kg. In the data set with male mice, the Therapeutic index is listed as 3.3.
As to `Cc1cccc(C)c1NC(=O)C(C)C12CCCN1CCC2` (stereo not drawn) [N-(2,6-dimethylphenyl)-2-(8-pyrrolizidine)propionamide], the ED50 in data set [1] turned out to be 23 mg/kg. In data set [2], this compound showed an LD50 of 92.1 mg/kg. Besides, the Therapeutic index in the data set with male mice amounted to 4.0.
